From patent publication US12171766B2, “Methods of treating patients suffering from brain injury and methods of increasing the value of the extended Glasgow Outcome Scale of patients suffering from brain injury” (VERINOS OPERATIONS GMBH, priority 2021, dated 2024)

Experiments:
animal models of TBI = settings: mice, Terpolilli et al. 2009; cited from earlier work
[1] = NOSTRA phase III trial: exposure control (pharmacokinetics), samples after end of infusion and 12 hours after end of infusion; assay type: in vivo, human; settings: exposure control samples; no utilizable values for parent
Procedure: An exposure control was performed with samples collected after end of infusion and 12 hours after end of infusion. Due to the high sensibility of Ronopterin to oxidation, no utilizable values could be obtained for Ronopterin and, therefore, the first metabolite, 4-amino-dihydrobiopterin, was used as a surrogate. The mean absolute concentration for the first metabolite of Ronopterin was 1071 ng/mL at the end of the infusion and 476 ng/mL 12 hours later (56% elimination). The mean absolute value for the second Ronopterin metabolite was 52 ng/mL at the end of the infusion and 37 ng/mL 12 hours after end of infusion.

[2] = test system: Moderate and Severe Traumatic Brain Injury; settings: cited from earlier work

## CC(O)C(O)C1CNc2nc(N)nc(N)c2N1 [Ronopterin, 4-Amino-(6R,S)-5,6,7,8-tetrahydro-L-biopterin]
Animal models of TBI
  effect in animal models of TBI: beneficial
[1]
  sensibility to oxidation: high
[2]; Phase IIa trial [Stover]
  effect of infusion during the initial 12 hours after TBI: benefits
[2]; Stover et al. 2014 (NOSTRA phase IIa)
  effect in phase II clinical trial: beneficial
